Measurements: patent US20030096379A1, “Method for producing tryptamine derivatives” (priority 2001, published 2003)

Legend:
[1] = target: T1, pig kidney aromatic amino acid decarboxylase (pkAAAD) (Sus scrofa, UniProt P80041); assay: Substrate screen for tryptophan decarboxylation, pkAAAD; assay type: biochemical; parameters: key: +: a clear ninhydrin-positive spot at the Rf of standard tryptophan derivatives after 16-65 h; (+): a weak spot in the product region; −: no product observed; NR: experiment not run; details: tryptophan derivative, PLP, pH 7.5, 37° C.
T1 construct: Frozen tissue was partially thawed in lysis buffer, then it was extracted and partially purified; from tissue; host or cells: pig kidney
T1 sequence (P80041 1-486): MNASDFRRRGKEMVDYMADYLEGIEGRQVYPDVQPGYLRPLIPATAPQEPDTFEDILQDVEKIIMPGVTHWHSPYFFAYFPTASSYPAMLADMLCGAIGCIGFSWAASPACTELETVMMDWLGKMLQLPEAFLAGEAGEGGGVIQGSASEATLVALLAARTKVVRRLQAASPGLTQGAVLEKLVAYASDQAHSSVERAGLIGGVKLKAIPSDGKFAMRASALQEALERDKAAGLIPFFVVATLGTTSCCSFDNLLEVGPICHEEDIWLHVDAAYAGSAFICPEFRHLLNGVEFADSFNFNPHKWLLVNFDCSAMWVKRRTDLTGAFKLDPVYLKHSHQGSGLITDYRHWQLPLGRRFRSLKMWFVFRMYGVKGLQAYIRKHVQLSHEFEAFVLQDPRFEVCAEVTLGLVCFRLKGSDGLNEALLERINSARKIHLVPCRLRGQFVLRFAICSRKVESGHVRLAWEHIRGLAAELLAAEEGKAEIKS

[2] = target: T2, tryptophan decarboxylase TDC1 (Camptotheca acuminata, UniProt P93082); assay: Substrate screen for tryptophan decarboxylation, TDC1; assay type: biochemical, C. accuminata; parameters: key: +: a clear ninhydrin-positive spot at the Rf of standard tryptophan derivatives after 16-65 h; (+): a weak spot in the product region; −: no product observed; NR: experiment not run; details: tryptophan derivative, PLP, pH 7.5, 37° C.
T2 construct: made in house; host or cells: E. coli DH5α (pKK233 plasmid from C. Nessler)
T2 sequence (P93082 1-502): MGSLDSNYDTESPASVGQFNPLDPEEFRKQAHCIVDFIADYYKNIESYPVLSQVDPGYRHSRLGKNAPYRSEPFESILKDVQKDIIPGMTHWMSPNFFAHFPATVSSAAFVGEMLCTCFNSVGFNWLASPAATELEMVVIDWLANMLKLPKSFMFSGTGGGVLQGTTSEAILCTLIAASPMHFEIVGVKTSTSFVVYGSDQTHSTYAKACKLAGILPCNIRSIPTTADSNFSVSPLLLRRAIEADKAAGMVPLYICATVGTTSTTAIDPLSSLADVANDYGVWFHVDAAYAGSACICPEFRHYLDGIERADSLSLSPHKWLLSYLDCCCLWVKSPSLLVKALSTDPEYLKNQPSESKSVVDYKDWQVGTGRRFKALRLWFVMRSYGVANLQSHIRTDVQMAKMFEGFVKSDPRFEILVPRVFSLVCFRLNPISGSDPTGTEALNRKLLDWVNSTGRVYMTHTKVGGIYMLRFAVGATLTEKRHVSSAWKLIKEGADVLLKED
Experimental: (§1) A mixture containing 1 μmole of the tryptophan derivative, 0.05 μmole of PLP and 50 μmol of L-serine in 40 mM pH 7.5 KPi buffer was warmed to 37° C., then enzyme solution was added to give a final volume of 1 mL. Aliquots (100 HL) were quenched at intervals and were evaporated in a Savant Speed-vac as in Example 6. For TLC analysis, CH2Cl2/EtOH/H2O/HOAc 49:49:1:1 was used as the solvent. The plates were visualized with short-wave UV light and ninhydrin as in Example 6.
(§2) HPLC techniques were used to monitor the decarboxylation of substituted tryptophans. Mass spectral analysis of the collected HPLC peaks was used to confirm the identity of several tryptamine derivatives, as shown in Table 5.

[3] = target: T3, tryptophan decarboxylase TDC2 (Camptotheca acuminata, UniProt P93083); assay: Substrate screen for tryptophan decarboxylation, TDC2; assay type: biochemical, C. accuminata; parameters: key: +: a clear ninhydrin-positive spot at the Rf of standard tryptophan derivatives after 16-65 h; (+): a weak spot in the product region; −: no product observed; NR: experiment not run; details: tryptophan derivative, PLP, pH 7.5, 37° C.
T3 construct: made in house; host or cells: E. coli DH5α (pKK233 plasmid from C. Nessler)
T3 sequence (P93083 1-498): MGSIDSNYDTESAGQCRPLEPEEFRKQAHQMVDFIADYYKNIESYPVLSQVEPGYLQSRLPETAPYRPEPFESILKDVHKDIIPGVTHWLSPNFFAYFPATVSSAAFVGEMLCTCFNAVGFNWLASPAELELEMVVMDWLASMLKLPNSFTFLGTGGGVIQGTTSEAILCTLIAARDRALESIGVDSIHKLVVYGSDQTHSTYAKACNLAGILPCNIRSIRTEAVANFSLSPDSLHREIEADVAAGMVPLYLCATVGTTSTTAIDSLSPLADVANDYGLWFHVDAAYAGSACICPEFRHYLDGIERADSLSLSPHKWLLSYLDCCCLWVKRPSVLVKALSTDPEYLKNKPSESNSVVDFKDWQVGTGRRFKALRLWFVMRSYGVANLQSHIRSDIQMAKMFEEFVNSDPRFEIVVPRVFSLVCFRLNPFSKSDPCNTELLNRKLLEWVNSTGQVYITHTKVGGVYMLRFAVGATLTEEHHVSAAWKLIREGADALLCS
Experimental: as §1, §2

TDC1 = target: T4, TDC1 (Camptotheca acuminata, UniProt P93082); assay: Relative decarboxylation rates by Ehrlich's reagent, TDC1; assay type: biochemical, C. accuminata
T4 construct: made in house; host or cells: E. coli DH5α (pKK233 plasmid from C. Nessler)
T4 sequence (P93082 1-502): T2 sequence (P93082 1-502)
Experimental: (§3) […] Reaction aliquots were quenched in microcentrifuge capsules containing 50 μL each of 6M HCl to quench the enzyme reaction at 2, 5, and 20 min. Quenched aliquots were heated at 50° C. for 40 min with 750 μL each of Ehrlich's reagent (2:24:74 w/v/v 4-(diethyl)aminobenzaldehyde: conc HCl: ethanol). Absorbance was read at 580-nm and compared with standards of serotonin (10-250 μM) or tryptamine (50 to 2000 μM).
(§4) Relative rates for decarboxylation of L-5-hydroxytryptophan (L-5-HOtrp) and L-tryptophan were determined for TDC1 and TDC2 by use of Ehrlich's reagent, discussed in Example 10.

TDC2 = target: T5, TDC2 (Camptotheca acuminata, UniProt P93083); assay: Relative decarboxylation rates by Ehrlich's reagent, TDC2; assay type: biochemical, C. accuminata
T5 construct: made in house; host or cells: E. coli DH5α (pKK233 plasmid from C. Nessler)
T5 sequence (P93083 1-498): T3 sequence (P93083 1-498)
Experimental: as §3, §4

[4] = Tryptophanase (tryptophan lyase) activity of the enzyme preparation; assay type: biochemical, E. coli
Experimental: Tryptophan synthase activity was assayed by monitoring the increase in absorbance at 290 nm of a mixture containing serine, indole and PLP (Higgins, W., et al., Biochemistry, 1979, 18, 4827). TnA-catalyzed tryptophan synthesis was also measured by the 290 nm assay, while the tryptophan lyase reaction rate was measured by monitoring the reduction in NADH in reaction mixtures containing L-tryptophan and lactate dehydrogenase, indicating the amount of pyruvate released. Tryptophan decarboxylase was assayed colorimetrically by monitoring the sabsorbance at 580 nm produced by serotonin (AAADs) or tryptamine (TDCs) following treatment of reaction aliquots with Ehrlich's reagent (4-N,N-(dimethyl)aminobenzaldehyde in ethanolic HCl; Nakazawa, H.; Kumagi, H.; Yamada, H. Biochem Biophys. Res. Commun., 1974, 61, 75-82). Serotonin could be detected with approximately 5-fold higher sensitivity by this method as compared with tryptamine. The Ehrlich reagent assay using a microtiter plate format for simultaneous analysis of multiple enzyme samples may also be used. HPLC analysis was performed on acid-quenched reaction aliquots by using a base-deactivated C8 reversed-phase support (Shandon Hypersil BD8). HPLC analysis of acid-quenched aliquots permitted calculation of a rate ratio of 4.5 to 1 for pkAAAD-catalyzed DOPA decarboxylation relative to that of L-5-hydroxytryptophan, in good agreement with the accepted ratio of approximately 5:1. (See Sourkes, T. L. Methods Enzymol., 1987, 142, 170-178, which is incorporated herein by reference.)
Activity is expressed as μmol product formed per minute, TrpBA activity is reported for the reaction: indole+serine−>tryptophan at room temperature as described in the next section. Tryptophanase is reported for the reaction: tryptophan−>indole+pyruvate+NH4^+ at room temperature. The rate of tryptophan synthesis for TrpBA under our assay conditions is approximately 3-fold higher at 37° C.

[5] = pH-rate profiles for tryptophan-metabolizing enzymes; assay type: biochemical; details: between pH 7.5 and 9.5, L-serine and indole
Source text: Both AAADs TDC1 and TDC2 were active over the entire optimum range shown by TrpBA. These broad activity ranges make it clear that the coupled enzyme process is not limited by pH.

[6] = target: T6, E. coli DH5α tryptophan synthase (TrpBA) (Escherichia coli, UniProt P0A879); assay type: biochemical; parameters: key: +: a clear ninhydrin-positive spot at the Rf of standard tryptophan derivatives after 16-65 h; (+): a weak spot in the product region; −: no product observed; NR: experiment not run; details: indole derivative + L-serine + PLP, 37° C., 16-65 h, ninhydrin
T6 construct: made in house; host or cells: E. coli LMG194 (pBAD) or BL-21 (pET)
T6 sequence (P0A879 whole entry): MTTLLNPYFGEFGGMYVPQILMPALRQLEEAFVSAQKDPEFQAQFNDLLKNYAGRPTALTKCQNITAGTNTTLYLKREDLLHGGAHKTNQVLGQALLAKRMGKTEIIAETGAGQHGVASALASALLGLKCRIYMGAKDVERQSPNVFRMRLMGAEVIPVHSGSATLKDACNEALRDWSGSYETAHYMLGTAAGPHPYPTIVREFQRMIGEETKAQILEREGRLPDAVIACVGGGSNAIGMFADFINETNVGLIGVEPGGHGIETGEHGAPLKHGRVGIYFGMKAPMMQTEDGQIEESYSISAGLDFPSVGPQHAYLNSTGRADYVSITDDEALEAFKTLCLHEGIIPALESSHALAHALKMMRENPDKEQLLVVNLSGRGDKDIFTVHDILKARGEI
T6 sequence (P0A877 whole entry, further chain): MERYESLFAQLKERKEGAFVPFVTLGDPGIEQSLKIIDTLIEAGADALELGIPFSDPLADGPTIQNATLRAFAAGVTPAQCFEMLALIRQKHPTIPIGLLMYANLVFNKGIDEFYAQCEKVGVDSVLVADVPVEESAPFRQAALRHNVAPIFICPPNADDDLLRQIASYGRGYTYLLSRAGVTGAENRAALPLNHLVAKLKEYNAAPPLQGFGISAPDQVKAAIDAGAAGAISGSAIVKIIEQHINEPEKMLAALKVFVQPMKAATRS

tryptophanase (TnA) = target: T7, tryptophanase (TnA) (Escherichia coli, UniProt P0A853); assay type: biochemical, E. coli; parameters: key: +: a clear ninhydrin-positive spot at the Rf of standard tryptophan derivatives after 16-65 h; (+): a weak spot in the product region; −: no product observed; NR: experiment not run; details: indole derivative + L-serine + PLP, 37° C., 16-65 h, ninhydrin
T7 construct: made in house; host or cells: E. coli LMG194 (pBAD) or BL-21 (pET)
T7 sequence (P0A853 whole entry): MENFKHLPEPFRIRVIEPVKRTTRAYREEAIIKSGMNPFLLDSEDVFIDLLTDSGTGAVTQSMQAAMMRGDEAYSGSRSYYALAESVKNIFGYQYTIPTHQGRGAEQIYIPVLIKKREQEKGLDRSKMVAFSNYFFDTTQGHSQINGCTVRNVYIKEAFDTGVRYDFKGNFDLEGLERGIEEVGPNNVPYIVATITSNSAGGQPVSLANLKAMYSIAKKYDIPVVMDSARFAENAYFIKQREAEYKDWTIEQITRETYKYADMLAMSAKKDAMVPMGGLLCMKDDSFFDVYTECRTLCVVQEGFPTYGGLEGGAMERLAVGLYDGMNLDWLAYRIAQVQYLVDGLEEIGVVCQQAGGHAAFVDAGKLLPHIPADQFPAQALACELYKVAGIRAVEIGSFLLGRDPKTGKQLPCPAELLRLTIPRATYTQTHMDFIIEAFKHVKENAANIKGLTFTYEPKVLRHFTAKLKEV

TrpBA = target: T8, TrpBA (Escherichia coli, UniProt P0A879); assay: Relative rates of tryptophan derivative synthesis by HPLC, TrpBA; assay type: biochemical, E. coli; details: initial rate estimated by HPLC, indole = 100%, L-serine
T8 construct: made in house; host or cells: E. coli LMG194 (pBAD) or BL-21 (pET)
T8 sequence (P0A879 whole entry): as the sequence (P0A879 whole entry) above
T8 sequence (P0A877 whole entry, further chain): as the sequence (P0A877 whole entry, further chain) above
Experimental: (§5) Reaction mixtures were prepared as in Example 6 and were incubated at 37° C. Aliquots (100 μL) were removed and quenched by addition of to 300 μL of 0.5 M sodium citrate, pH 3.0 in 10% v/v acetonitrile/water in 2 ml microcentrifuge tubes. Following centrifugation for 10 min at 13,000×g, the supernatants were passed through 0.45μ membrane filters prior to HPLC analysis of 20 μL of filtrate.
(§6) TnA reactions were run with L-serine as the 3-carbon substrate.

TnA = target: T9, TnA (Escherichia coli, UniProt P0A853); assay: Relative rates of tryptophan derivative synthesis by HPLC, TnA; assay type: biochemical, E. coli; details: initial rate estimated by HPLC, indole = 100%, L-serine as the 3-carbon substrate
T9 construct: made in house; host or cells: E. coli LMG194 (pBAD) or BL-21 (pET)
T9 sequence (P0A853 whole entry): as the sequence (P0A853 whole entry) above
Experimental: as §5, with “Aliquots” for “Reaction mixtures were prepared as in Example 6 and were incubated at 37° C. Aliquots”
as §6

TrpBA and TDC1 = assay: Coupled enzyme synthesis monitored by HPLC; assay type: biochemical; details: L-serine, PLP, pH 8.5 phosphate buffer, 37° C.
Experimental: To a solution containing L-serine (25 μmol), pyridoxal phosphate (0.05 μmol) and TrpBA (0.02 to 1.5 units, depending on the substrate), TDC1 (0.2 mL 0.6 units) and KPi buffer (0.05 mmol, pH 7.5) in a volume of 0.8 mL were added […] of 5 mM indole derivative in 20% v/v ethanol/water. The mixture was incubated at 37° C. and aliquots were quenched and analyzed as described for Example 8. In cases where tryptamine and/or tryptophan standards were not available, peaks were collected for mass spectral analysis. Electrospray mass spectral analyses were performed.
Mixtures containing indole, L-serine, PLP and TDC1 were incubated in pH 8.5 phosphate buffer, analyzing aliquots by HPLC, as described in Example 12.
The procedure used in Example 24 was carried out by substituting indole with 2-methylindole, 4-hydroxymethylindole, 5-methoxy-, 5-hydroxymethyl-, 5-methoxycarbonyl, and 5,6-dimethoxyindole.

Compound: N[C@@H](Cc1c[nH]c2ccccc12)C(=O)O [L-tryptophan]
- pkAAAD (decarboxylation substrate screen) [1]: (+)
- TDC1 (decarboxylation substrate screen) [2]: +
- TDC2 (decarboxylation substrate screen) [3]: +
- ratio trp/5HOtrp TDC1 (relative decarboxylation rate) (TDC1; pH 7.5): 15.1
- ratio trp/5HOtrp TDC1 (relative decarboxylation rate) (TDC1; pH 8.5): 10.5
- ratio trp/5HOtrp TDC1 (relative decarboxylation rate) (TDC1; pH 9.5): 10.3
- ratio trp/5HOtrp TDC2 (relative decarboxylation rate) (TDC2; pH 7.5): 64.1
- ratio trp/5HOtrp TDC2 (relative decarboxylation rate) (TDC2; pH 8.5): 38.3
- ratio trp/5HOtrp TDC2 (relative decarboxylation rate) (TDC2; pH 9.5): 53.6

Compound: TnA: E. coli tryptophanase, E.C. 4.1.99.1, cloned and expressed in E. coli
- Crude specific activity ([4]; Table 3, TnA): 0.8 units/mg
- Crude spec activity ([4]; TnA, tryptophan->indole+pyruvate+NH4+, room temperature): 0.8
- Purified specific activity ([4]; TnA, tryptophan->indole+pyruvate+NH4+, room temperature, after DEAE cellulose): 2.0 Units/mg
- percent of the maximum rate [5]: ≥ 84%

Compound: c1ccc2[nH]ccc2c1 [indole, reference compound]
- TrpBA (tryptophan product spot, TLC analysis) [6]: +
- TnA (tryptophan product spot, TLC analysis) (tryptophanase (TnA)): +
- Relative rate (TrpBA) (TrpBA): 100%
- Relative Rate (TnA) (TnA): 100%
- formation of tryptophan derivative and tryptamine (HPLC peaks) (TrpBA and TDC1): clearly observable
